The record followed here is US4824996A, “Phospholipase A2 inhibitors” (American Home Products Corporation, priority 1986, dated 1989).

One assay addresses T1, human platelet PLA2 (Homo sapiens, UniProt P14555).
T1 construct: The PLA2 enriched supernatant fluid is removed; from tissue; host or cells: expired human platelets from the blood bank (acid extract, 10,000 g supernatant)
T1 sequence (P14555 21-144): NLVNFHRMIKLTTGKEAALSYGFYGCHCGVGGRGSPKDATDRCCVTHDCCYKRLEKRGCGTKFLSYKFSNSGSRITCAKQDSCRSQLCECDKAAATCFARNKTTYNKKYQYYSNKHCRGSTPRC
The assay is described as follows: in vitro assay of inhibition of human platelet PLA2 (hydrolysis of [1-14C]oleic acid labelled E. coli membrane phospholipids). It is filed as biochemical. As to the method:
The ability of the compounds to inhibit the activity of PLA2 enzyme is measured in the following in vitro assay.
(§1) The assay is carried out as follows:
E. coli, cultured to exponential growth, are sedimented for 15 minutes at 10,000 g and resuspended in sterile isotonic saline (1-3 ml). 10-25 μCi [1-^14 C] oleic acid is added to a sterile flask, evaporated by N2 and resolubilized with 0.3 ml 20% fatty acid-free BSA. 75-100 ml of nutrient broth and 1 ml E. coli are then added to each flask and incubated for 2-3 hours at 37° C. [1-^14 C] oleic acid labelled E. coli are then sedimented, suspended in saline and added to fresh nutrient broth and incubated for 1.5 hours at 37° C. to complete [1-^14 C] oleic acid incorporation into the phospholipids. After overnight refrigeration of cultures, E. coli are again sedimented, suspended in saline and autoclaved for 15 minutes at 120° C. E. coli cultures are washed twice with saline (first wash contains 1% BSA) and resuspended in saline. Non-labelled E. coli cultures are also prepared in the same manner. Cell number is determined by measuring the optical density at 550 nm ([…]=1 O.D.). The amount of radioactivity associated with cells is determined by counting a defined volume of cell suspension. The specific activity is subsequently adjusted by adding non-labelled E. coli to yield 2-4×10 cpm per 1×10^10 E. coli. [1-^14 C] arachidonic acid-labelled E. coli are similarly prepared.
Platelet PLA2 Preparation
Expired human platelets from the blood bank are centrifuged for 15 minutes at 200 g to obtain a platelet rich plasma fraction and to remove the red blood cells. Platelets are sedimented for 15 minutes at 2500 g and the plasma is removed before adding cold 0.18N […] (4 ml/unit). Platelets are homogenized, incubated for 1 hour at 4° C., homogenized again and centrifuged for 15 minutes at 10,000 g. The PLA2 enriched supernatant fluid is removed and the amount of protein is determined by the Lowry method. The preparation is divided into various portions and stored at -20° C.
The assay measures the hydrolysis of E. coli membrane phospholipids and the release of free [1-^14 C] oleic acid from the C-2 position of phospholipids by human platelet PLA2. To ice cold 15×100 mm test tubes, the following additions are made: 2,5×10 E. coli (equivalent to 4 nmol phospholipid), 5 mM Ca^++, 100 mM Tris buffer (pH=7.4), 100 μg platelet extract (or an amount to produce 20-30% hydrolysis), drug or vehicle. The final volume is adjusted to 500 μl with water. Mixtures are vortexed and incubated for 30 minutes in a shaking water bath. It should be noted that preliminary experiments are always performed with each new batch of platelets to establish linear hydrolysis of phospholipids with regard to protein concentration and time. The enzyme reaction is stopped by the addition of 3 volumes of CHCl3 to each tube which is vortexed and then centrifuged for 5 minutes at 500 g. The lower CHCl3 /CH3 OH phase is removed and evaporated under N. The dried residue is redissolved in 50 μl CHCl3 :CH3 OH (9:1 v/v), spotted on aluminum-backed chromatographic plates and developed in a solvent system consisting of petroleum ether:diethyl ether:acetic acid (80:20:1). Free fatty acid ([1-^14 C]oleic acid) and [1-^14 C]oleic acid labeled phospholipids are visualized with exposure to iodine vapors. Radioactive areas that cochromatographed with authentic oleic acid and phospholipid standards are cut out and placed in a scintillation vial. One ml CH3 OH and 10 ml Hydrofluor are added to each cut strip and radioactivity is determined by liquid scintillation counting.
The percent hydrolysis is calculated by the following equation: [formula]

The test system of assay [1] is synthesis of LTC4 by murine peritoneal macrophages. Nature of the assay: inhibition of LTC4 synthesis by murine peritoneal macrophages. The class given is cell-based, CD-1 mice. The settings on record: compounds at 10 μm (so in the source). As to the method: (§2) The ability of the compounds of the invention to inhibit both leukotriene and prostaglandin synthesis is examined in an assay which measures the ability of the compounds of the invention to inhibit the synthesis of arachidonic acid, PGE2 and LTC4 by murine peritoneal macrophages.
as §1
(§3) Macrophages are removed from the peritoneal cavity of 55-57 day old CD-1 mice (killed by CO2 asphyxiation) by peritoneal lavage and centrifuged at 400×g for ten minutes. The cells are resuspended in Medium 199 and 4×10^6 cells are allowed to adhere on 35×10 mm Petri dishes for 1.5 hours at 37° C. in an atmosphere of 95% air and 5% CO2. The cell monolayers are washed and incubated overnight in Medium 199 supplemented with 10% heat inactivated bovin serum containing 1 μCi[^14 C]-arachidonic acid, or in the absence of ^14 C-arachidonic acid when the supernatant is to be assayed by radioimmunoassay (RIA). The labeled cells are then washed and incubated at 37° C. for 2 hours in Medium 199 with the prostaglandin stimuli, zymosan, or 12-o-tetradecanoyl-phorbol-13-acetate (TPA) and in the presence or absence of test compounds. Following incubation, the supernatant is removed and subjected to radioimmunoassay in order to determine the percent inhibition of arachidonic acid, prostaglandin E2 and leukotriene C4 by the test compounds.

Assay [2] has as its system lipoxygenase and/or cyclooxygenase pathways of arachidonic acid. The assay is described as follows: in vivo 12-O-tetradecanoylphorbol acetate (TPA)-induced murine ear edema test. The arrangement: species or system Swiss Webster female mice. The settings on record: 30 minutes after TPA, ears measured after 4 hours; for % Change from Control, ORAL TPA: 100 mg/kg; for % Change from Control, TOPICAL TPA: 1 mg/ear. An excerpt: (§4) The ability of the compounds of the invention to inhibit the lipoxygenase and/or cyclooxygenase pathways of arachidonic acid is examined in the in vivo arachidonic acid (AA)-/12-O-tetradecanoylphorbol acetate (TPA)-induced murine ear edema test.
(§5) According to this test, Swiss Webster female mice (Buckshire), approximately 8 weeks old, are placed into plastic boxes in groups of six. Eight groups of mice receive AA topically on the right ear, and another 8 groups receive TPA topically on the right ear. AA and TPA are dissolved in acetone at concentrations of 100 mg/ml ad 100 μg/ml respectively. The phlogistics are applied to the right ear by the means of an automatic pipet. Volumes of 10 μl are applied to the inner and outer surfaces of the ear. Each mouse receives either 2 mg/ear AA or 4 μg/ear TPA. The left ear (control) receives acetone delivered in the same manner. Oral and topical dosing regimens are as follows: (1) drugs are given 30 minutes prior to AA treatment, and (2) drugs are given 30 minutes after treatment with TPA.
(§6) Measurements are taken with Oditest calipers, 0-10 mm with 0.01 graduations. The right and left ears are measured after 1 hour AA-induced inflammation and 4 hours after TPA-induced inflammation.
(§7) The difference between right and left ear thickness is calculated and the significance is determined by a one way analysis of variance with Dunnett's comparisons to control (P=0.05). Drug effects are expressed as a percent change from control values: [formula]

Assay [3] has as its system synthesis of arachidonic acid by murine peritoneal macrophages. The assay is described as follows: inhibition of arachidonic acid (AA) synthesis by murine peritoneal macrophages. The class given is cell-based, CD-1 mice. The settings on record: compounds at 10 μm (so in the source). As to the method:
as §2, §1, §3

Assay [4] relates to synthesis of PGE2 by murine peritoneal macrophages. The assay is described as follows: inhibition of PGE2 synthesis by murine peritoneal macrophages. The settings on record: compounds at 10 μm (so in the source). It is filed as cell-based, CD-1 mice. As to the method: as §2, §1, §3
Assay [5] relates to lipoxygenase and/or cyclooxygenase pathways of arachidonic acid. The assay is described as follows: in vivo arachidonic acid (AA)-induced murine ear edema test. Also noted: species or system Swiss Webster female mice. The conditions noted are these: 1 mg/ear, 30 minutes prior to AA, ears measured after 1 hour.
Description: as §4
as §5, with “Oral and topical dosing regimens are as follows: (1) drugs are given 30 minutes prior to AA treatment, and (2) drugs are given 30 minutes after treatment with TPA.” left out
as §6, §7

Setting [6] is: compounds of the invention, Table 1, read-out: IC50 (inhibition of PLA2).

Where two headings read alike, the source gives them in different places.

As a reminder, the inhibition is the change of the read-out against control, counted positive when it falls. For the molecule `CCCCCCCCCCCCCCCCNC(=O)NCCCN(C)C` [Example 6, N-[3-(dimethylamino)propyl]-N'-hexadecylurea], 100 µM produced 100% inhibition at human platelet PLA2.

`CCCCCCCCCCCCCCCCS(=O)(=O)NCCCCCCCN(CC)CC` [Example 7] displayed an inhibition at 100 µM at human platelet PLA2 of 94.4%.

By IC50 is commonly meant the midpoint of a concentration-inhibition curve. As for `CCCCCCCCCCCCCC(=O)N1CC(C)NC(C)C1` (stereo not shown) [Example 9, 3,5-Dimethyl-1-(1-oxotetradecyl)piperazine], the inhibition at 100 µM at human platelet PLA2 came to 100%. Also, the IC50 on human platelet PLA2 (setting [6]) was 8.5 µM. Also, the “Mean % Inhibition ± S.E., LTC4” value in assay [1] amounted to 82.15 ± 2.48%. For the same molecule, in assay [2], the “% Change from Control, ORAL TPA” value was -25% and the “% Change from Control, TOPICAL TPA” value is reported as -55%. Moreover, the “Mean % Inhibition ± S.E., AA” value in assay [3] is 50.42 ± 2.50%. Besides, the “Mean % Inhibition ± S.E., PGE2” value in assay [4] is reported as 73.50 ± 8.20%.

The molecule `CCCCCCNC(=O)OCCCCCCN(C)C` [Example 5, Hexylcarbamic acid 6-(dimethylamino)hexyl ester] registered an inhibition at 100 µM on human platelet PLA2 of 11%.

As for `CCCCCCCCCCCCCC(=O)NN(C)C` [Example 8, Tetradecanoic acid 2,2-dimethylhydrazide], on human platelet PLA2, testing at 100 µM gave an inhibition of 55.9%.

For the molecule `CCCCCCCCCCCCNC(=O)OCCCCCCN(C)C` [Example 1, Dodecylcarbamic acid 6-(dimethylamino)hexyl ester], 100 µM produced 100% inhibition at human platelet PLA2.

Regarding `CCCCCCCCCCCCCCCCNC(=O)OCCCCCCN(C)C` [Example 2, Hexadecylcarbamic acid 6-(dimethylamino)hexyl ester], at human platelet PLA2, testing at 100 µM gave an inhibition of 100%. Moreover, the IC50 on human platelet PLA2 (setting [6]) was determined as 30 µM. Also, the “% Change from Control, TOPICAL AA” value in assay [5] is on record as -29%. For the same molecule, the “Mean % Inhibition ± S.E., LTC4” value in assay [1] is 81.00 ± 1.79%. Further, in assay [2], the “% Change from Control, TOPICAL TPA” value is given as -42%. Also, the “Mean % Inhibition ± S.E., AA” value in assay [3] is given as 36.92 ± 6.29%. In assay [4], the “Mean % Inhibition ± S.E., PGE2” value is given as 81.18 ± 2.06%.

Consider “Gold Sodium Thiomalate [reference compound]”, for which, on human platelet PLA2 (standard drugs, read-out: Inhibition of PLA2 Activity IC50), the IC50 was 43 µM.

As to `CCCCCCCCCCCCCCC(=O)NCCCN(C)C` [Example 4, N-[3-(dimethylamino)propyl]pentadecanamide], at 100 µM the inhibition against human platelet PLA2 was 100%. The IC50 at human platelet PLA2 (setting [6]) is 6.8 µM. Further, in assay [1], the “Mean % Inhibition ± S.E., LTC4” value is 91.95 ± 2.57%. Also, in assay [2], the “% Change from Control, ORAL TPA” value is reported as -60% and the “% Change from Control, TOPICAL TPA” value was -48%. Besides, the “Mean % Inhibition ± S.E., AA” value in assay [3] is 34.12 ± 5.58%. Besides, the “Mean % Inhibition ± S.E., PGE2” value in assay [4] came to 48.62 ± 9.32%.

Regarding `CCCCCCCCCCCCCCCCNC(=O)OCCCN(C)C` [Example 3, Hexadecylcarbamic acid 3-(dimethylamino)propyl ester], the inhibition at 100 µM on human platelet PLA2 was 100%.
